Data reported in US20240360134A1, “PYRAZOLOPYRIMIDINES AND THEIR USES AS PDGFR INHIBITORS” (priority 2021, published 2024).

How the values were obtained:
[1] = molecular target: Tb-labeled inactive PDGFRβ (Homo sapiens (Human), UniProt P09619); experiment: biochemical; type: binding; conditions: read-out: PDGFR Lantha IC50
[2] = molecular target: His6-TEV-PDGFRβ (557-1016) (Homo sapiens (Human), UniProt P09619); experiment: PDGFRβ HTRF Assay; type: biochemical; conditions: 800 μM ATP, 0.5 μM TK-substrate biotin peptide, 30 min pre-incubation, 3 hours reaction; read-out: PDGFR HTRF IC50
Procedure: Instrumentation: a. Compound liquid handling: LabCyte Echo; b. Reagent liquid handling: Thermo Scientific Multidrop Combi; c. BMG PHERAStar multilabel plate reader.
Protein Reagent: His6-TEV-PDGFRβ Protein Prep prepared at Accelagen.
Assay buffer stock solution, contains 50 mM Hepes, 10 mM MgCl2, 1 mM EGTA, and 0.01% Brij-35, 0.01% ovalbumin, 2 mM DTT at pH 7.5, in molecular biology grade water. Store at room temperature.
Assay buffer. Dilute 5× Kinase buffer 5-fold with molecular biology grade water and add DTT to 2 mM and ovalbumin to 0.1 mg/mL (or 0.01%).
2× protein solution. Make a working solution of […] PDGFRβ in assay buffer. Keep on ice until use to maintain enzyme stability.
2× substrate solution. Make a working solution of 1.6 mM ATP and 1 μM TK-substrate biotin peptide in assay buffer. 3× quench/detection solution.
Step 2. PDGFRβ E+I pre-incubation: Add 2 μL 2× protein solution to columns 1-24 using the Multidrop Combi. Centrifuge at 1000 rpm for 1 min. Incubate 30 min at RT
Step 2. Enzymatic reaction: Add 2 μL substrate solution to columns 1-24 to initiate the reaction using the Multidrop Combi; cover/seal the assay plate to reduce evaporation. Centrifuge at 1000 rpm for 1 min. Incubate at room temperature for 3 hours.
Final concentrations of components in PDGFRp cascade assay:
0.5 μM TK-substrate biotin peptide
Step 3. Quench/Detection: Add 2 μl 3× quench/detection solution to columns 1-24 using the Multidrop Combi; cover/seal the plate. Centrifuge 1 min 1000 rpm. Incubate at RT for 60 min.
HTRF ratio values calculated by the instrument (Ratio is acceptor counts/donor counts*10,000) is exported from the plate reader and used in data analysis. The exported data will be used to calculate 1) compound activity and 2) assay statistics. […] Assay statistics can include Robust Z′ and Signal to Background.
% Inhibition Calculation: Percent inhibition will be calculated for sample wells based on the equation: […]
IC50 Calculation: For IC50 determination, full 11-point dose response data will be processed using the following equation: […]

VEGFR2, unphosphorylated = VEGFR2, unphosphorylated (Homo sapiens (Human), UniProt P35968); experiment: VEGFR ADP GLO assay; type: biochemical; conditions: 5 nM VEGFR2, 1.2 mM ATP, 1 mg/mL Srctide, 180 min
Procedure: Assay buffer stock contains 50 mM HEPES pH7.5, 10 mM MgCl2, 0.01% Brij-35, and 1 mM EGTA.
Unphosphorylated VEGFR2. 52.6 μM in 50 mM Tris-HCl, pH 8.0, 50 mM NaCl, 5% Glycerol, 0.5 mM TCEP. Store at −80° C. in aliquots.
10 mg/mL srctide solution, prepared in Assay buffer (Assay buffer stock with 2 mM DTT, 0.1% Pluronic F-127, and 0.1 mg/mL ovalbumin). Sonicate 10 mg/ml Srctide solution for 10 minutes and then vacuum filter.
Assay buffer. Add DTT to 2 mM, Pluronic F-127 to 0.1% and ovalbumin to 0.1 mg/mL to Assay buffer stock.
2× kinase solution. Make a working solution of 10 nM unphosphorylated VEGFR2 in Assay buffer. Vacuum filter 2× kinase solution prior to running assay. Keep on ice until use.
2× substrate/ATP solution. Make a working solution of 2 mg/mL srctide and 2.4 mM ATP in Assay buffer. Keep on ice until use.
Step 1. Dispensing inhibitors/controls: Using Echo, dispense 10 nL/well compound serial dilutions in DMSO to columns 1-22 (in 384-well plates) or columns 1-44 (in 1536-well plates). Dilution series=11 pt, 3-fold dilutions. The top compound concentration in the source plate is 4 mM. The top compound concentration in the assay plate is 10 uM. Using Echo, dispense 10 nl/well DMSO to column 23 (in 384-well plates) or columns 45-47 (in 1536-well plates). These wells will serve as negative control wells Using Echo, dispense 10 nl/well 400 uM TAK-593 in DMSO to column 24 (in 384-well plates) or column 48 (in 1536-well plates). The final concentration of TAK-593 in the assay should be 1 uM. These wells will serve as positive control wells.
Step 2. Pre-incubation of inhibitors with kinase: Add 2 μL/well 2× kinase solution. Centrifuge at 1000 rpm for 1 min. Incubate at room temperature for 30 min.
Step 3. Kinase cascade reaction: Add 2 μL/well 2× substrate/ATP solution to initiate kinase reactions. Centrifuge at 1000 rpm for 1 min. Incubate at room temperature for 180 min.
Final concentrations of components in the assay:
Step 4. Quench: Add 2 uL/well ADP Glo Reagent+0.05% CHAPS. Centrifuge at 1000 rpm for 1 min; Incubate at room temperature for one hour.
Step 5. Detection: Add 2 uL/well Kinase Detection Reagent+0.05% CHAPS. Centrifuge at 1000 rpm for 1 min; Incubate at room temperature for 1 hour; Read Luminescence on a plate reader.
% Inhibition: % Inhibition=(NC−sample)/(NC−PC)*100 where NC is the mean of negative control (reactions without inhibitor), and PC is the mean of positive control (1 μM TAK-593).
IC50 values are determined from a 4-parameter fit, using the following equation: Y=Bottom+(Top−Bottom)/(1+10^(Log IC50-X)*Hill Slope), where X=log10 of the compound concentration; top can be defined by PC; bottom defined by NC.

PDGFRβ = PDGFRβ (Rattus norvegicus (Rat), UniProt Q05030); experiment: PDGFRβ Cellular Assay (PDGFRb P-Y751 HTRF, PDGF-BB stimulated A10 cells); type: cell-based; conditions: A10 cells, 3 hours compound, 15 ng/mL PDGFbb for 10 minutes; read-out: PDGFR Cellular IC50
Procedure: Cell Culture and Preparation: Cells are cultured according to ATCC procedure (5) with the addition of the antibiotic penicillin-streptomycin. If working from frozen, cells should be thawed according to ATCC procedure. Depending on the cell density of frozen vial, cells will need time to recover from thaw. An 80% confluent T75 flask should be enough for one 384 well plate.
Stock Solutions: Rat PDGFBB. A 100 ug/mL stock is prepared by reconstituting 50 ug in 500 μL of 4 mM HCl and 0.1% BSA. It can be stored for a month at 4° C., or aliquoted out and frozen in the −20/−80° C. to avoid multiple free-thaw cycles.
1× Cisbio cell lysis buffer. The cell lysis buffer is diluted 4-fold with molecular grade water. The blocking agent is then diluted 25-fold in the diluted lysis buffer.
Antibody solutions. Equal amounts d2 and cryptate antibody are diluted 20-fold in detection buffer.
Rat PDGFBB. A working stock of 100 ng/mL is created from the stock solution in 10% FBS culture media.
Step 1: Plating Cells: Media from the A10 cell flask is aspirated. The cells are rinsed with PBS and then trypsinized to disperse the cell layer. The cells are then pelleted are resuspended to 1.25e5 cells/mL. […] Plates are covered and placed in the incubator (37° C. 5% CO2) overnight to allow cells to adhere.
Step 2: Compound Dispense: Approximately 18 hours after plating, dispense 40 nL compound onto cells using Echo. […] The plate is returned to the incubator for 3 hours.
After 10 minutes the media is removed by flicking the plate.
Step 4: Cell lysis and antibody addition: 20 uL lysis buffer per well is added to the plate via Tempest. 5 uL antibody solution is added per well via the Tempest. The plate is placed on the shaker at 230 rpm for 1 hour at room temperature.
Step 5: Detection: The plate is read using the HTRF module on the BMG Pherastar. Data is analyzed using Genedata Screener.
IC50 values are determined from a 4-parameter fit, using the following equation: Y=Bottom+(Top−Bottom)/(1+10((Log IC50−X)*Hill slope)), where X=log10 of the compound concentration; top can be defined by PC; bottom defined by NC.

Sequence of VEGFR2, unphosphorylated (P35968 whole entry, looked up): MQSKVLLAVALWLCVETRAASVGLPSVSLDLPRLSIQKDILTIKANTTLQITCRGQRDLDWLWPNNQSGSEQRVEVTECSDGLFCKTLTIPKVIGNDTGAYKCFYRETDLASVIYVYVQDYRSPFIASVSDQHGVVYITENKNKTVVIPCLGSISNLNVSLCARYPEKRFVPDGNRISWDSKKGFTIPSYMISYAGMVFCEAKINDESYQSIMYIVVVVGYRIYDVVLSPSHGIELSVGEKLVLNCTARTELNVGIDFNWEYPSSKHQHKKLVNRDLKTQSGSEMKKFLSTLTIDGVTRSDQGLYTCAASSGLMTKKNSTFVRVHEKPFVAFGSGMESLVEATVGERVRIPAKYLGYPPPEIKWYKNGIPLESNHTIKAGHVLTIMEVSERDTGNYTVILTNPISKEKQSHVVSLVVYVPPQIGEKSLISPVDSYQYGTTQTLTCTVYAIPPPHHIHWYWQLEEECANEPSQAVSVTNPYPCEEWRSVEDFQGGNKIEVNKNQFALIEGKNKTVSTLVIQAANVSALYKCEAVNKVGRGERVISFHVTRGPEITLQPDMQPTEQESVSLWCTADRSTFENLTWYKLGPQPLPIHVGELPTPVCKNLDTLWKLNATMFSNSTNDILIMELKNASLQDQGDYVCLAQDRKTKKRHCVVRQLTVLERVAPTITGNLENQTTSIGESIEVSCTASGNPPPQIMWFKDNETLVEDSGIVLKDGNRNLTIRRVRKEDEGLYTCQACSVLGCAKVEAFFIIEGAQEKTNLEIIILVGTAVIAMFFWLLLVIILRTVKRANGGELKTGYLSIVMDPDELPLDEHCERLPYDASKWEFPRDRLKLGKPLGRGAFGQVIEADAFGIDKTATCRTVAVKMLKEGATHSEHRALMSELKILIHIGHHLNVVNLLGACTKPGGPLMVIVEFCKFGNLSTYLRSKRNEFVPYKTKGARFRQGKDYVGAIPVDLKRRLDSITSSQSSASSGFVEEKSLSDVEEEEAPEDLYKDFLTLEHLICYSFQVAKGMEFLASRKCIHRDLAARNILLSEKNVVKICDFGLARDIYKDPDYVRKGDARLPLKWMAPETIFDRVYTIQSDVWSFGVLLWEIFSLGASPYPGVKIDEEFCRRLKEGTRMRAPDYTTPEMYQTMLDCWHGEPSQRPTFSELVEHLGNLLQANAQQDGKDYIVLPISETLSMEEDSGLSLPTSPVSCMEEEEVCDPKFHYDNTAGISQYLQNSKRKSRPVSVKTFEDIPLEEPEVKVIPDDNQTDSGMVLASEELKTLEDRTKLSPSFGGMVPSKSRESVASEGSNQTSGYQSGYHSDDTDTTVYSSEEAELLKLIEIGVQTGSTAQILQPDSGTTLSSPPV
Sequence of Tb-labeled inactive PDGFRβ (P09619 whole entry, looked up): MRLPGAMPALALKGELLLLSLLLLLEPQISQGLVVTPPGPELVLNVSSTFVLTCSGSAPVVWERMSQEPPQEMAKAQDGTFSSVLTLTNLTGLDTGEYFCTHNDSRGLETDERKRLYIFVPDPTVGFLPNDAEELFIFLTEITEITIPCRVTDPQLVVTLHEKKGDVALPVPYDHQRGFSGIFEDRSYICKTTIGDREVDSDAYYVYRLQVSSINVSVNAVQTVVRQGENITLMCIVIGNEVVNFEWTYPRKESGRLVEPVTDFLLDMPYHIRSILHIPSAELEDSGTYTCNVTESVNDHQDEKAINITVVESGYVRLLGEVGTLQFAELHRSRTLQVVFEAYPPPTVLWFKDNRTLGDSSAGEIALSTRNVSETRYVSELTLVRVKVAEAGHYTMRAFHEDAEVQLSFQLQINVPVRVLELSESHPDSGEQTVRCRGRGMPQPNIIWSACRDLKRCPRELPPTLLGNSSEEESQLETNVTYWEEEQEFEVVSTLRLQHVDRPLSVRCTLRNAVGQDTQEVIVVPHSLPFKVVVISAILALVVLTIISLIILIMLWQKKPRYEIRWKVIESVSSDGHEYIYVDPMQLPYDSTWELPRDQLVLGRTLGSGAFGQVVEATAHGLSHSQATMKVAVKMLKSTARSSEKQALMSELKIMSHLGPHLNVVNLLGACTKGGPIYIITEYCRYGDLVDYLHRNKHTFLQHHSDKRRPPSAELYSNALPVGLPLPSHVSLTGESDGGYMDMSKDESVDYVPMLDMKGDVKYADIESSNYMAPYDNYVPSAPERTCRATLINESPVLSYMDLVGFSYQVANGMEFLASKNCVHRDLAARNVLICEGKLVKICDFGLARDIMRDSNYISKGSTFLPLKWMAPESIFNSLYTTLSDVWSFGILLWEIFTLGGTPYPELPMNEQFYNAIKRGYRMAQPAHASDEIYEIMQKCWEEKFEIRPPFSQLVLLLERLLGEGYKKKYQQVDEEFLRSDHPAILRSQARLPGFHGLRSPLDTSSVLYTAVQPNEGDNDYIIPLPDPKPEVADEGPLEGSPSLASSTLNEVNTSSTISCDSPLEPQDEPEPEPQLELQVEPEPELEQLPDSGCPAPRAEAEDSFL
Sequence of His6-TEV-PDGFRβ (557-1016) (P09619 whole entry, looked up): as above
Sequence of PDGFRβ (Q05030 whole entry, looked up): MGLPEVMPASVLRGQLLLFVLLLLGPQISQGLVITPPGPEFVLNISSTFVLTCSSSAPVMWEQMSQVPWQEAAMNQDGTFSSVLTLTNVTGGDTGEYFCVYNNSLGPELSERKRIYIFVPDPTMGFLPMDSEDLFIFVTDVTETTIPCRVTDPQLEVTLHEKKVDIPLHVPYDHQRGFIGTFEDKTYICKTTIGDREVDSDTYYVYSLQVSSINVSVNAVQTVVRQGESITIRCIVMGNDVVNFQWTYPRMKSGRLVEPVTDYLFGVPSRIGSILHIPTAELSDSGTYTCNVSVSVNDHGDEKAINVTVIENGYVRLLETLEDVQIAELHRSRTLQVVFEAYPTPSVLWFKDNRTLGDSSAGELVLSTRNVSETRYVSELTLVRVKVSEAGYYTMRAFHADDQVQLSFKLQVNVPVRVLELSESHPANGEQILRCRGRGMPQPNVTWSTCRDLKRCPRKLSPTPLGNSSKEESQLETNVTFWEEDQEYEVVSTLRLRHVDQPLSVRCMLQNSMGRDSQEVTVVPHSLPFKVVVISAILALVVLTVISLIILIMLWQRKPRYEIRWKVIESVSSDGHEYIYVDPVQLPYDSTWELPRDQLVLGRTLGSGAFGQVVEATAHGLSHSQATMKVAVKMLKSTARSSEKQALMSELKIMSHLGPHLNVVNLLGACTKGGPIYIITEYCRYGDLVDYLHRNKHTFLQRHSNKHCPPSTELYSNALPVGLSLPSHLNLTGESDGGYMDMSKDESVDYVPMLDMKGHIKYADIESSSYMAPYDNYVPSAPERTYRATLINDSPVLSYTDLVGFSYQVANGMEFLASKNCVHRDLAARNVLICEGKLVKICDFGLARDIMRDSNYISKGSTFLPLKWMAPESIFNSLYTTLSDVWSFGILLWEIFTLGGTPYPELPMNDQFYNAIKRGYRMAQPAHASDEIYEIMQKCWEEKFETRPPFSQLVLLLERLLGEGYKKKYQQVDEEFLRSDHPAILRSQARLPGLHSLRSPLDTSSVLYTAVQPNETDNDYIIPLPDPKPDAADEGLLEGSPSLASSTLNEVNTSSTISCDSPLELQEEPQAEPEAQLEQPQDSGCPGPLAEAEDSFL

In the case of “2-(3,3-dimethylazetidin-1-yl)-N-(6-methyl-5-((1-methyl-6-((1-methyl-1H-imidazol-4-yl)amino)-1H-pyrazolo[3,4-d]pyrimidin-3-yl)amino)pyridin-3-yl)acetamide [Example 141]”, the IC50 [1] is reported as 12.5 nM, the IC50 [2] is reported as 1.4 nM and the IC50 (VEGFR2, unphosphorylated) is reported as over 7500 nM. The IC50 (PDGFRβ) was 9.4 nM.

For `Cc1ncc(C(=O)NCCN2C[C@H](C)O[C@@H](C)C2)cc1Nc1nn(C)c2nc(Nc3cnn(C)c3)ncc12` (relative stereo) [Example 92, N-(2-(trans-2,6-dimethylmorpholino)ethyl)-6-methyl-5-((1-methyl-6-((1-methyl-1H-pyrazol-4-yl)amino)-1H-pyrazolo[3,4-d]pyrimidin-3-yl)amino)nicotinamide], the IC50 [1] was 4.3 nM, the IC50 [2] was 0.69 nM and the IC50 (VEGFR2, unphosphorylated) was 6700 nM. For the same molecule, the IC50 (PDGFRβ) was 22.8 nM.

`Cc1ncc(C(=O)NCCN2[C@H](C)COC[C@H]2C)cc1Nc1nn(C)c2nc(Nc3cnn(C)c3)ncc12` (relative stereo) [Example 94, N-(2-(trans-3,5-dimethylmorpholino)ethyl)-6-methyl-5-((1-methyl-6-((1-methyl-1H-pyrazol-4-yl)amino)-1H-pyrazolo[3,4-d]pyrimidin-3-yl)amino)nicotinamide] gave an IC50 [1] of 2.1 nM, an IC50 [2] of 0.33 nM and an IC50 (VEGFR2, unphosphorylated) of 1170 nM. The IC50 (PDGFRβ) was 13.9 nM.

`Cc1ncc(C(=O)NCCN2CCC(F)(F)CC2)cc1Nc1nn(C)c2nc(Nc3cncnc3)ncc12` [Example 1, N-(2-(4,4-difluoropiperidin-1-yl)ethyl)-6-methyl-5-((1-methyl-6-(pyrimidin-5-ylamino)-1H-pyrazolo[3,4-d]pyrimidin-3-yl)amino)nicotinamide] showed an IC50 [1] of 3.3 nM, an IC50 [2] of 0.65 nM and an IC50 (VEGFR2, unphosphorylated) of over 7500 nM. For the same molecule, the IC50 (PDGFRβ) was 12 nM.

`Cc1ncc(C(=O)NCCN2CCCC(F)(F)C2)cc1Nc1nn(C)c2nc(Nc3cncnc3)ncc12` [Example 2, N-(2-(3,3-difluoropiperidin-1-yl)ethyl)-6-methyl-5-((1-methyl-6-(pyrimidin-5-ylamino)-1H-pyrazolo[3,4-d]pyrimidin-3-yl)amino)nicotinamide] gave an IC50 [1] of 3.7 nM, an IC50 [2] of 0.57 nM and an IC50 (VEGFR2, unphosphorylated) of over 7500 nM. The IC50 (PDGFRβ) was 27.1 nM.

Work on `Cc1ncc(C(=O)NCCN2CCC[C@@H]2C)cc1Nc1nn(C)c2nc(Nc3cncnc3)ncc12` [Example 3, (S)-6-methyl-5-((1-methyl-6-(pyrimidin-5-ylamino)-1H-pyrazolo [3,4-d]pyrimidin-3-yl)amino)-N-(2-(2-methylpyrrolidin-1-yl)ethyl)nicotinamide] yielded an IC50 [1] of 6.8 nM, an IC50 [2] of 0.68 nM and an IC50 (VEGFR2, unphosphorylated) of over 7500 nM. The IC50 (PDGFRβ) was 113 nM.

`Cc1ncc(C(=O)NCCN2CCCC23CCC3)cc1Nc1nn(C)c2nc(Nc3cncnc3)ncc12` [Example 4, N-(2-(5-azaspiro[3.4]octan-5-yl)ethyl)-6-methyl-5-((1-methyl-6-(pyrimidin-5-ylamino)-1H-pyrazolo[3,4-d]pyrimidin-3-yl)amino)nicotinamide] was tested, and the IC50 [1] was 3.2 nM, the IC50 [2] was 0.46 nM and the IC50 (VEGFR2, unphosphorylated) was over 7500 nM. The IC50 (PDGFRβ) was 14.5 nM.

In the case of `Cc1ncc(C(=O)NCCN2CCCC[C@@H]2C)cc1Nc1nn(C)c2nc(Nc3cncnc3)ncc12` [Example 5, (S)-6-methyl-5-((1-methyl-6-(pyrimidin-5-ylamino)-1H-pyrazolo[3,4-d]pyrimidin-3-yl)amino)-N-(2-(2-methylpiperidin-1-yl)ethyl)nicotinamide], the IC50 [1] is reported as 5.3 nM, the IC50 [2] is reported as 0.65 nM and the IC50 (VEGFR2, unphosphorylated) is reported as 2070 nM. For the same molecule, the IC50 (PDGFRβ) was 67.5 nM.

`Cc1ncc(C(=O)NCCN2CC3CCC2CC3)cc1Nc1nn(C)c2nc(Nc3cncnc3)ncc12` [Example 6, N-(2-(2-azabicyclo[2.2.2]octan-2-yl)ethyl)-6-methyl-5-((1-methyl-6-(pyrimidin-5-ylamino)-1H-pyrazolo[3,4-d]pyrimidin-3-yl)amino)nicotinamide] was tested, and the IC50 [1] was 5.2 nM, the IC50 [2] was 0.59 nM and the IC50 (VEGFR2, unphosphorylated) was over 7500 nM. The IC50 (PDGFRβ) was 102 nM.

`Cc1ncc(C(=O)NCCN2CCC3(CCC3)CC2)cc1Nc1nn(C)c2nc(Nc3cncnc3)ncc12` [Example 7, N-(2-(7-azaspiro[3.5]nonan-7-yl)ethyl)-6-methyl-5-((1-methyl-6-(pyrimidin-5-ylamino)-1H-pyrazolo[3,4-d]pyrimidin-3-yl)amino)nicotinamide] was tested, and the IC50 [1] was 6.7 nM, the IC50 [2] was 0.48 nM and the IC50 (VEGFR2, unphosphorylated) was over 7500 nM. The IC50 (PDGFRβ) was 32.7 nM.

`Cc1ncc(C(=O)NCCN2CCC(C)(C)C2)cc1Nc1nn(C)c2nc(Nc3cncnc3)ncc12` [Example 8, N-(2-(3,3-dimethylpyrrolidin-1-yl)ethyl)-6-methyl-5-((1-methyl-6-(pyrimidin-5-ylamino)-1H-pyrazolo[3,4-d]pyrimidin-3-yl)amino)nicotinamide] gave an IC50 [1] of 5.8 nM, an IC50 [2] of 0.39 nM and an IC50 (VEGFR2, unphosphorylated) of over 7500 nM. The IC50 (PDGFRβ) was 48 nM.
